From US9695155B2, “Herbicidal substituted pyrimidinyloxy benzene compounds” (E. I. DU PONT DE NEMOURS AND COMPANY, priority 2013, dated 2017)

What was measured:
chickweed = assay: Test D preemergence; type: in vivo, Stellaria media; conditions: for pest or weed control at 16 g/ha / pest or weed control at 31 g/ha / pest or weed control at 62 g/ha / pest or weed control at 125 g/ha: Stellaria media, pre-emergence; for pest or weed control at 16 g/ha: read-out: Plant response rating, Chickweed; for pest or weed control at 31 g/ha / pest or weed control at 62 g/ha / pest or weed control at 125 g/ha: scale 0-100, read-out: Plant response rating, Chickweed
Description: (§1) Seeds of plant species selected from bluegrass (annual bluegrass, Poa annua), blackgrass (Alopecurus myosuroides), canarygrass (littleseed canarygrass, Phalaris minor), chickweed (common chickweed, Stellaria media), galium (catchweed bedstraw, Galium aparine), bromegrass, downy (downy bromegrass, Bromus tectorum), field poppy (Papaver rhoeas), field violet (Viola arvensis), green foxtail (Setaria viridis), deadnettle (henbit deadnettle, Lamium amplexicaule), Italian ryegrass (Lolium multiflorum), kochia (Kochia scoparia), lambsquarters (Chenopodium album), oilseed rape (Brassica napus), pigweed (Amaranthus retroflexus), chamomile (scentless chamomile, Matricaria inodora), Russian thistle (Salsola kali), speedwell (bird's-eye speedwell, Veronica persica), spring barley (Hordeum vulgare), spring wheat (Triticum aestivum), wild buckwheat (Polygonum convolvulus), wild mustard (Sinapis arvensis), wild oat (Avena fatua), wild radish (Raphanus raphanistrum), windgrass (Apera spica-venti), winter barley (Hordeum vulgare), and winter wheat (Triticum aestivum) were planted into a silt loam soil and treated preemergence with test chemicals formulated in a non-phytotoxic solvent mixture which included a surfactant.
(§2) At the same time, these species were planted in pots containing Redi-Earth® planting medium (Scotts Company, 14111 Scottslawn Road, Marysville, Ohio 43041) comprising spaghnum peat moss, vermiculite, wetting agent and starter nutrients and treated with postemergence applications of the test chemicals formulated in the same manner. Plants ranged in height from 2 to 18 cm (1- to 4-leaf stage). Treated plants and controls were maintained in a controlled growth environment for 7 to 21 days after which time all species were compared to controls and visually evaluated. Plant response ratings, summarized in Table D, are based on a scale of 0 to 100 where 0 is no effect and 100 is complete control. A dash (-) response means no test result.

field violet = assay: Test D preemergence; type: in vivo, Viola arvensis; conditions: for pest or weed control at 16 g/ha / pest or weed control at 31 g/ha / pest or weed control at 62 g/ha / pest or weed control at 125 g/ha: Viola arvensis, pre-emergence; for pest or weed control at 16 g/ha: read-out: Plant response rating, Field Violet; for pest or weed control at 31 g/ha / pest or weed control at 62 g/ha / pest or weed control at 125 g/ha: scale 0-100, read-out: Plant response rating, Field Violet
Description: as §1, §2

spring wheat = assay: Test D preemergence; type: in vivo, Triticum aestivum; conditions: for plant injury at 16 g/ha / plant injury at 31 g/ha: read-out: Plant response rating, Wheat, Spring
Description: as §1, §2

winter wheat = assay: Test D preemergence; type: in vivo, Triticum aestivum; conditions: for plant injury at 16 g/ha / plant injury at 31 g/ha: read-out: Plant response rating, Wheat, Winter
Description: as §1, §2

foxtail, green = assay: Test F preemergence; type: in vivo, Setaria viridis; conditions: 21 days, scale 0 to 100
Description: (§3) Seeds of plant species selected from bermudagrass (Cynodon dactylon), surinam grass (Brachiaria decumbens), large (Lg) crabgrass (Digitaria sanguinalis), crabgrass, naked (naked crabgrass, Digitaria nuda), foxtail, green (green foxtail, Setaria viridis), johnsongrass (Sorghum halepense), kochia (Kochia scoparia), morningglory (pitted morningglory, Ipomoea lacunosa), nutsedge, purple (purple nutsedge, Cyperus rotundus), ragweed (common ragweed, Ambrosia elatior), mustard, black (black mustard, Brassica nigra), guineagrass (Panicum maximum), dallisgrass (Paspalum dilatatum), barnyardgrass (Echinochloa crus-galli), sandbur (southern sandbur, Cenchrus echinatus), sowthistle (common sowthistle, Sonchus oleraceous), Italian ryegrass (Lolium multiflorum), signalgrass (broadleaf signalgrass, Brachiaria platyphylla), dayflower (Virginia (VA) dayflower, Commelina virginica), bluegrass (annual bluegrass, Poa annua), quackgrass (Elytrigia repens), mallow (common mallow, Malva sylvestris), buckwheat, wild (wild buckwheat, Polygonum convolvulus), leafy spurge (Euphorbia esula), chickweed (common chickweed, Stellaria media), wild poinsettia (Euphorbia heterophylla), and pigweed (Amaranthus retroflexus) were planted into a blend of loam soil and sand and treated preemergence with test chemicals formulated in a non-phytotoxic solvent mixture which included a surfactant.
(§4) Treated plants and controls were maintained in a greenhouse for 21 days, after which time all species were compared to controls and visually evaluated. Plant response ratings, summarized in Table F, are based on a scale of 0 to 100 where 0 is no effect and 100 is complete control. A dash (-) response means no test result.

guineagrass = assay: Test F preemergence; type: in vivo, Panicum maximum; conditions: 21 days, scale 0 to 100
Description: as §3, §4

mallow = assay: Test F preemergence; type: in vivo, Malva sylvestris; conditions: 21 days, scale 0 to 100
Description: as §3, §4

kochia = assay: Test E postemergence; type: in vivo, Kochia scoparia
Description: Seeds of plant species selected from corn (Zea mays), soybean (Glycine max), velvetleaf (Abutilon theophrasti), lambsquarters (Chenopodium album), wild poinsettia (Euphorbia heterophylla), palmer pigweed (Amaranthus palmeri), waterhemp (common waterhemp, Amaranthus rudis), surinam grass (Brachiaria decumbens), large (Lg) crabgrass (Digitaria sanguinalis), Brazilian crabgrass (Digitaria horizontalis), fall panicum (Panicum dichotomiflorum), giant foxtail (Setaria faberii), green foxtail (Setaria viridis), goosegrass (Eleusine indica), johnsongrass (Sorghum halepense), ragweed (common ragweed, Ambrosia elatior), barnyardgrass (Echinochloa crus-galli), sandbur (southern sandbur, Cenchrus echinatus), arrowleaf sida (Sida rhombifolia), Italian ryegrass (Lolium multiflorum), dayflower (Virginia (VA) dayflower, Commelina virginica), field bindweed (Convolvulus arvensis), morningglory (Ipomoea coccinea), nightshade (eastern black nightshade, Solanum ptycanthum), kochia (Kochia scoparia), yellow nutsedge (Cyperus esculentus), cocklebur (common cocklebur, Xanthium strumarium), smartweed (ladysthumb smartweed, and hairy beggarticks (Bidens pilosa), were planted into a silt loam soil and treated preemergence with test chemicals formulated in a non-phytotoxic solvent mixture which included a surfactant.
At the same time, plants from these crop and weed species and also horseweed (Canada horseweed, Conyza canadensis), waterhemp_RES1, (ALS & Triazine resistant common waterhemp, Amaranthus rudis), and waterhemp_RES2, (ALS & HPPD resistant common waterhemp, Amaranthus rudis) were planted in pots containing Redi-Earth® planting medium (Scotts Company, 14111 Scottslawn Road, Marysville, Ohio 43041) comprising spaghnum peat moss, vermiculite, wetting agent and starter nutrients were treated with postemergence applications of test chemicals formulated in the same manner. Plants ranged in height from 2 to 18 cm for postemergence treatments (1- to 4-leaf stage). Treated plants and controls were maintained in a greenhouse for 14 to 21 days, after which time all species were compared to controls and visually evaluated. Plant response ratings, summarized in Table E, are based on a scale of 0 to 100 where 0 is no effect and 100 is complete control. A dash (-) response means no test result.

[1] = 16 g ai/ha, scale 0 (no effect) to 100 (complete control)
[2] = Triticum aestivum, pre-emergence, 16 g ai/ha, scale 0 (no effect) to 100 (complete control)
[3] = Triticum aestivum, pre-emergence, 31 g ai/ha, scale 0 (no effect) to 100 (complete control)
[4] = Triticum aestivum, pre-emergence, 125 g ai/ha, scale 0-100, read-out: Plant response rating, Wheat, Spring
[5] = Triticum aestivum, pre-emergence, 125 g ai/ha, scale 0-100, read-out: Plant response rating, Wheat, Winter
[6] = Postemergence, 31 g ai/ha, scale 0 to 100
[7] = Postemergence, 62 g ai/ha, scale 0 to 100
[8] = Postemergence, 125 g ai/ha, scale 0 to 100
[9] = postemergence, 16 g ai/ha, scale 0 to 100, 0 no effect, 100 complete control
[10] = 31 g ai/ha, scale 0 (no effect) to 100 (complete control)

| Structure (SMILES) | pest or weed control at 16 g/ha (chickweed; [1]) [%] | pest or weed control at 31 g/ha (chickweed; 31 g ai/ha) [%] | pest or weed control at 62 g/ha (chickweed; 62 g ai/ha) [%] | pest or weed control at 125 g/ha (chickweed; 125 g ai/ha) [%] | pest or weed control at 16 g/ha (field violet; [1]) [%] | Plant response rating, Foxtail, Green (foxtail, green; 16 g ai/ha) | Plant response rating, Foxtail, Green (foxtail, green; 31 g ai/ha) | Plant response rating, Foxtail, Green (foxtail, green; 62 g ai/ha) | Plant response rating, Foxtail, Green (foxtail, green; 125 g ai/ha) | Plant response rating, Foxtail, Green (foxtail, green; 250 g ai/ha) | Plant response rating, Guineagrass (guineagrass; 16 g ai/ha) | Plant response rating, Guineagrass (guineagrass; 31 g ai/ha) | Plant response rating, Guineagrass (guineagrass; 62 g ai/ha) | Plant response rating, Guineagrass (guineagrass; 125 g ai/ha) | Plant response rating, Guineagrass (guineagrass; 250 g ai/ha) | Plant response rating, Mallow (mallow; 16 g ai/ha) | Plant response rating, Mallow (mallow; 31 g ai/ha) | Plant response rating, Mallow (mallow; 62 g ai/ha) | Plant response rating, Mallow (mallow; 125 g ai/ha) | Plant response rating, Mallow (mallow; 250 g ai/ha) | other results |
| --- | --- | --- | --- | --- | --- | --- | --- | --- | --- | --- | --- | --- | --- | --- | --- | --- | --- | --- | --- | --- | --- |
| Fc1cccc(Oc2ncc(Cl)cn2)c1-n1cc(C(F)F)nn1 [Compound 141, 5-chloro-2-[2-[4-(difluoromethyl)-1H-1,2,3-triazol-1-yl]-3-fluorophenoxy]pyrimidine] | 100 | 100 | 100 | 100 | 100 | – | – | – | – | – | – | – | – | – | – | – | – | – | – | – | pest or weed control at 31 g/ha (field violet; 31 g ai/ha): 100%; pest or weed control at 62 g/ha (field violet; 62 g ai/ha): 100%; pest or weed control at 125 g/ha (field violet; 125 g ai/ha): 100%; plant injury at 16 g/ha (spring wheat; [2]): 25%; plant injury at 31 g/ha (spring wheat; [3]): 30%; plant injury at 62 g/ha (spring wheat; Triticum aestivum, pre-emergence, 62 g ai/ha, scale 0-100, read-out: Plant response rating, Wheat, Spring): 65%; plant injury at 125 g/ha (spring wheat; [4]): 75%; plant injury at 16 g/ha (winter wheat; [2]): 15%; plant injury at 31 g/ha (winter wheat; [3]): 20%; plant injury at 62 g/ha (winter wheat; Triticum aestivum, pre-emergence, 62 g ai/ha, scale 0-100, read-out: Plant response rating, Wheat, Winter): 60%; plant injury at 125 g/ha (winter wheat; [5]): 60% |
| N#Cc1cccc(Oc2ncc(Cl)cn2)c1-n1cc(OCC(F)(F)F)cn1 [Compound 274, 3-[(5-chloro-2-pyrimidinyl)oxy]-2-[4-(2,2,2-trifluoroethoxy)-1H-pyrazol-1-yl]benzonitrile] | 60 | 85 | 100 | 100 | 75 | 100 | 100 | 100 | 100 | 100 | 100 | 100 | 100 | 100 | 100 | 98 | 98 | 98 | 100 | 100 | pest or weed control at 31 g/ha (field violet; 31 g ai/ha): 100%; pest or weed control at 62 g/ha (field violet; 62 g ai/ha): 100%; pest or weed control at 125 g/ha (field violet; 125 g ai/ha): 100%; plant injury at 16 g/ha (spring wheat; [2]): 0%; plant injury at 31 g/ha (spring wheat; [3]): 0%; plant injury at 125 g/ha (spring wheat; [4]): 55%; plant injury at 16 g/ha (winter wheat; [2]): 0%; plant injury at 31 g/ha (winter wheat; [3]): 0%; plant injury at 125 g/ha (winter wheat; [5]): 35% |
| Clc1cnc(Oc2cccc(Cl)c2-n2cc(I)cn2)nc1 [Compound 181] | – | – | – | – | – | – | – | – | – | – | – | – | – | – | – | – | – | – | – | – | Plant response rating, Kochia (kochia; [6]): 60; Plant response rating, Kochia (kochia; [7]): 50; Plant response rating, Kochia (kochia; [8]): 90; Plant response rating, Kochia (kochia; [9]): 35 |
| N#Cc1cccc(Oc2ncc(F)cn2)c1-n1cc(C(F)(F)F)cn1 [Compound 79, 3-[(5-fluoro-2-pyrimidinyl)oxy]-2-[4-(trifluoromethyl)-1H-pyrazol-1-yl]benzonitrile] | – | – | – | – | – | 95 | 100 | 100 | 100 | 100 | 100 | 100 | 100 | 100 | 100 | 98 | 100 | 100 | 100 | 100 | Plant response rating, Kochia (kochia; [6]): 70; Plant response rating, Kochia (kochia; [7]): 80; Plant response rating, Kochia (kochia; [8]): 75; Plant response rating, Kochia (kochia; [9]): 50 |
| N#Cc1cccc(Oc2ncc(Cl)cn2)c1-n1cc(OC(F)F)cn1 [Compound 97] | – | – | – | – | – | 75 | 100 | 100 | 100 | 100 | 100 | 100 | 100 | 100 | 100 | 30 | 75 | 98 | 100 | 100 | – |
| FCc1cccc(Oc2ncc(Cl)cn2)c1-n1cc(I)cn1 [Compound 245] | – | – | – | – | – | – | – | – | – | – | – | – | – | – | – | – | – | – | – | – | Plant response rating, Chickweed (chickweed; [1]): 55; Plant response rating, Chickweed (chickweed; 31 g ai/ha, scale 0-100): 85; Plant response rating, Chickweed (chickweed; 62 g ai/ha, scale 0-100): 100; Plant response rating, Chickweed (chickweed; 125 g ai/ha, scale 0-100): 100; Plant response rating, Field Violet (field violet; [1]): 55; Plant response rating, Field Violet (field violet; 31 g ai/ha, scale 0-100): 95; Plant response rating, Field Violet (field violet; 62 g ai/ha, scale 0-100): 100; Plant response rating, Field Violet (field violet; 125 g ai/ha, scale 0-100): 100; Plant response rating, Wheat, Spring (spring wheat; [1]): 5; Plant response rating, Wheat, Spring (spring wheat; [10]): 10; Plant response rating, Wheat, Spring (spring wheat; 125 g ai/ha, scale 0-100): 20; Plant response rating, Wheat, Winter (winter wheat; [1]): 10; Plant response rating, Wheat, Winter (winter wheat; [10]): 15; Plant response rating, Wheat, Winter (winter wheat; 125 g ai/ha, scale 0-100): 30 |
